Entries after “also recorded” stand apart in the source; their conditions may differ. Where two headings read alike, the source gives them in different places.
What was measured:
Dengue NGC virus [1] = test: Plaque assay of supernatant after K562 infection; type: cell-based; conditions: infected K562 cells, 48 hours, 0.1 μM and 10 μM
Procedure: The human lung-epithelial carcinoma A549 cell-line and hematopoetic cell line K562 are from ATCC and cultured according to instruction. PBMC (Peripheral Blood Mononuclear Cell) were prepared from buffy coat from healthy donors using ficoll gradient. The A549 dengue NGC replicon cells used for the work contains non-infectious, self replicating Dengue virus with a Renilla luciferase reporter under puromycin selection (24). Cells were cultured in F12 (Hams) medium (Invitrogen, Carlsbad, Calif.) supplemented with 10% fetal bovine serum (FBS) and puromycin (10-50 μg/ml). Cells were assayed in F12 medium supplement with 2% FBS without puromycin. Dengue NGC virus (GenBank number M29095) and the Malaysian clinical isolates MY10340 (from Shamala Devi, University of Malaya, Malaysia) were propagated in insect cells C6/36 (ATCC). For virus titer analysis, the level of live virus was determined by plaque assay in BHK-21 cells (ATCC) in triplicate.
(§1) For compound testing, K562 infection system was used. […] The cell viability is measured by Celltiter Glo.

K562 cells = test: Cell viability of infected K562 cells by Celltiter Glo; type: cell-based, human; conditions: for CC50: K562 infection, same range of inhibitor concentrations, read-out: CC50 (concentration of 50% cell death)
Procedure: as §1
(§2) To determine the EC50 (effective concentration of 50% inhibition of virus growth) and the cytotoxity CC50 (concentration of 50% cell death), a dose response curve covering at least four different concentrations was done in K562 infection. The decrease of the percentage of the dengue positive cells was then plotted against the concentrations of inhibitors, using a nonlinear regression analysis to obtain the EC50. CC50 was calculated using the same method using the cell viability over the same range of inhibitor concentrations.

Dengue NGC virus [2] = test: Dengue NGC live virus infection in K562 cells, FACS (anti-E/anti-NS1 double positive cells); type: cell-based; conditions: for percent Dengue positive cells (E and NS1 double positive): K562, Dengue NGC, 48 hours, 4.8% positive without treatment; for EC50: read-out: EC50 (effective concentration of 50% inhibition of virus growth); for inhibition of viral growth / effect on infection: K562 infection assay
Procedure: as §1, §2

[3] = Cell viability of infected K562 cells by Celltiter Glo; type: cell-based, human; conditions: human, K562 cells infected with dengue NGC virus, K562 infection, same range of inhibitor concentrations, read-out: CC50 (concentration of 50% cell death)
Procedure: as §1, §2

dengue strain MY10340 [4] = test: Dengue infection of human PBMCs, FACS; type: cell-based, Dengue virus; conditions: human PBMC, two days, enhancing antibodies, increasing concentration
Procedure: as §1
Statins are a safe and widely used drug for the treatment of hypercholesterolemia (12). The toxicity observed in K562 cells could be due to the specific effect of Statins in a cancer cell line (1,22). For avoiding the toxicity in cancer or transformed cell lines, health donors' PBMC were collected, and tested the effect of statin in PBMC infection was tested. PBMCs were infected with a clinically isolated dengue strain MY10340 for two days in the presence of enhancing antibodies from dengue positive plasma. The infection was assessed by FACS and plaque assay as for K562 infection.

dengue strain MY10340 [5] = test: Live virus titer in PBMC infection by plaque assay; type: cell-based, Dengue virus; conditions: human PBMC, two days, increasing concentration
Procedure: PBMC (Peripheral Blood Mononuclear Cell) were prepared from buffy coat from healthy donors using ficoll gradient. […] For virus titer analysis, the level of live virus was determined by plaque assay in BHK-21 cells (ATCC) in triplicate.
For compound testing, K562 infection system was used. 50,000 K562 cells were plated in 96 well in 100 ul and infected the second day with 1 m.o.i of NGC virus for two days. Compounds were added together with the virus and the viral growth was measured by FACS with two antibodies, the anti-Dengue Envelope protein antibody (ATCC) (26) conjugated to Alexa 680 (Invitrogen) and the anti NS1 antibody (ATCC) conjugated to Alexa 488. The cell viability is measured by Celltiter Glo. The supernatant after infection were collected for plaque assay for live virus titer. For PBMC infection, conditions were the same as for K562 infection except 500,000 total cells were plated and an 1:10,000 diluted dengue IgG positive serum was added to the infection.

[6] = K562 cells, 1 m.o.i NGC virus, two days, decrease of percentage of dengue positive cells by FACS

Row | Molecule | CC50 (K562 cells) [µM] | EC50 (Dengue NGC virus [2]; [6]) [µM] | inhibition of viral growth / effect on infection (Dengue NGC virus [2]) | CC50 at 2 days [3] [µM] | also measured
1 | C=C(CC[C@]12O[C@H](C(=O)O)[C@@](O)(C(=O)O)[C@](C(=O)O)(O1)[C@H](OC(=O)/C=C/[C@@H](C)C[C@@H](C)CC)[C@H]2O)[C@@H](OC(C)=O)[C@H](C)Cc1ccccc1 [Zaragozic Acid, Zaragozic acid A] | > 50 | 8.3 | significantly inhibited |  | fold less plaque than cells treated with DMSO alone (Dengue NGC virus [1]): 2-6 fold; effect on cell viability / cytotoxicity (K562 cells; K562 cells, dose range, 48 hours, listed as ZGA): no significant cytotoxicity; also recorded: no effect; percent Dengue positive cells (E and NS1 double positive) (Dengue NGC virus [2]; 0.1 μM ZGA): 2.8%; percent Dengue positive cells (E and NS1 double positive) (Dengue NGC virus [2]; 10 μM ZGA): 0.6%
2 | CC(C)n1c(/C=C/C(O)CC(O)CC(=O)O)c(-c2ccc(F)cc2)c2ccccc21 (stereo not drawn) [Fluvastatin] |  |  |  | 48.8 | EC50 (Dengue NGC virus [2]; Dengue virus, K562, 48 h): > 50 µM
3 | CC[C@H](C)C(=O)O[C@H]1C[C@@H](C)C=C2C=C[C@H](C)[C@H](CC[C@@H]3C[C@@H](O)CC(=O)O3)[C@H]21 [Lovastatin] |  |  |  | 46.8 | percentage of infected cells (dengue strain MY10340 [4]): decreased; virus titer (dengue strain MY10340 [5]): decreased; EC50 (Dengue NGC virus [2]; 48 h, K562 cells, 1 m.o.i NGC virus, two days, decrease of percentage of dengue positive cells by FACS): > 50 µM
4 | Hymeglusin | ~50 | 4.5 | significantly inhibited |  | 
5 | CC(C)C[C@H](NC(=O)c1ccc(NCc2cnc[nH]2)cc1-c1cccc2ccccc12)C(=O)O [GGTI 2133] | > 50 | > 50 |  |  | 

— US20100183613A1, “METHODS OF USING MEVALONATE DECARBOXYLASE (MVD) ANTAGONISTS” (NOVARTIS AG, priority 2008, published 2010)
